Data reported in patent publication US20260272883A1, “SOLID STATE FORMS OF PIRTOBRUTINIB AND PROCESS FOR THE PREPARATION OF INTERMEDIATE THEREOF” (DR. REDDY'S LABORATORIES LIMITED, priority 2023, published 2026).

Key:
[1] = Stability of crystalline form P1 at 25° C./60% RH and 40° C./75% RH for 3 months (closed conditions); type: physicochemical
[2] = Stability of crystalline form P1 under 80% RH (open condition) and illumination (300-400 nm); type: physicochemical

Purity ([1]; 0 Day): 98.9%
Stability ([1]; 3 months at accelerated conditions): stable
Purity ([1]; 25° C./60% RH (Closed Condition) (3 months)): 98.7%
Physical and chemical stability ([1]; 25° C./60% RH for 3 months under closed conditions): physically and chemically stable
Purity ([1]; 40° C./75% RH (Closed Condition) (3 months)): 98.9%
Stability ([1]; 40° C./75% RH for 3 months under closed conditions): stable
Purity ([2]; 0 Day): 98.9%
Purity ([2]; Exposure at 80% RH for 1 day (Open Condition)): 98.9%
Purity ([2]; Illumination (300-400 nm) for 24 hours): 98.9%
Stability ([2]; high humidity and illumination conditions): stable
Physical and chemical stability ([2]; kept at 80% RH in open condition): physically and chemically stable
Physical and chemical stability ([2]; kept under illumination (300-400 nm) for 24 hours): physically and chemically stable
Compound: COc1ccc(F)cc1C(=O)NCc1ccc(-c2nn([C@@H](C)C(F)(F)F)c(N)c2C(N)=O)cc1 [Crystalline form P1 of Pirtobrutinib, (S)-5-amino-3-(4-((5-fluoro-2-methoxybenzamido)methyl)phenyl)-1-(1,1,1-trifluoropropan-2-yl)-1H-pyrazole-4-carboxamide]
